Data from publication PMC11868366 (Communications Biology, 2025).

Biological target: S6MTHFR (Sphingobium sp. SYK-6, UniProt G2IQS8)
Test: X-ray crystal structure of CH3-THF complex, […] Å
Type: binding
Conditions: FAD bound as purified; pH 4.5

Sequence of S6MTHFR (G2IQS8 2-288): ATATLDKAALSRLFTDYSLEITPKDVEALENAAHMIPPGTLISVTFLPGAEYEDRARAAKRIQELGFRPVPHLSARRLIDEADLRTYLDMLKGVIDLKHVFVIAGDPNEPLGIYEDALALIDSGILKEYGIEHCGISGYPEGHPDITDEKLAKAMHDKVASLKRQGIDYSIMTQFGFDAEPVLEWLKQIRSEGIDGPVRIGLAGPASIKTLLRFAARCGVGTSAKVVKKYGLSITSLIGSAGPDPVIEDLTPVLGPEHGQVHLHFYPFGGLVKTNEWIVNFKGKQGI

For Cc1cc2nc3c(=O)[nH]c(=O)nc-3n(C[C@H](O)[C@H](O)[C@H](O)COP(=O)(O)OP(=O)(O)OC[C@H]3O[C@@H](n4cnc5c(N)ncnc54)[C@H](O)[C@@H]3O)c2cc1C [FAD], the “X-ray crystal structure of CH3-THF complex, 1.85 Å” value was “FAD and the experimentally observed part of the CH3-THF molecule are shown by stick models”.
